From ChEMBL document CHEMBL2429827, “Pharmacological evaluation of some novel synthesized compounds derived from spiro(cyclohexane-1,2-thiazolidines)” (2013)
Values after ≈ are worked out from the molar mass of the structure shown. Active and inactive are the calls of the source. No cut-off for these calls is given here.

Key:
[1] = tested on: MCF7; assay: Cytotoxicity against human MCF7 cells at 100 ug/ml after 72 hrs by SRB assay; type: functional
[2] = tested on: HepG2; assay: Cytotoxicity against human HepG2 cells at 100 ug/ml after 72 hrs by SRB assay; type: functional
[3] = tested on: Radical scavenging activity; assay: Antioxidant activity assessed as DPPH radical scavenging activity at 100 ug/ml after 30 mins by spectroscopic analysis; type: functional
[4] = tested on: Radical scavenging activity; assay: Antioxidant activity assessed as DPPH radical scavenging activity at 50 ug/ml after 30 mins by spectroscopic analysis; type: functional
[5] = tested on: Aspergillus niger; assay: Antifungal activity against Aspergillus niger after 48 hrs by two-fold serial dilution technique; type: functional
[6] = tested on: Candida albicans; assay: Antifungal activity against Candida albicans NRRL Y-477 after 48 hrs by two-fold serial dilution technique; type: functional; settings: NRRL Y-477, 48 h
[7] = tested on: Bacillus subtilis; assay: Bacteriostatic activity against Bacillus subtilis NRRL B-543 after 24 hrs by two-fold serial dilution technique; type: functional; settings: NRRL B-543, 24 h
[8] = tested on: Staphylococcus aureus; assay: Bacteriostatic activity against Staphylococcus aureus NRRL B-313 after 24 hrs by two-fold serial dilution technique; type: functional; settings: NRRL B-313, 24 h
[9] = tested on: Aspergillus niger; assay: Antifungal activity against Aspergillus niger after 24 hrs by agar diffusion method; type: functional, organism-based
[10] = tested on: Candida albicans; assay: Antifungal activity against Candida albicans NRRL Y-477 after 24 hrs by agar diffusion method; type: functional, organism-based
[11] = tested on: Escherichia coli; assay: Antibacterial activity against Escherichia coli NRRL B-210 after 24 hrs by agar diffusion method; type: functional, organism-based
[12] = tested on: Bacillus subtilis; assay: Antibacterial activity against Bacillus subtilis NRRL B-543 after 24 hrs by agar diffusion method; type: functional, organism-based
[13] = tested on: Staphylococcus aureus; assay: Antibacterial activity against Staphylococcus aureus NRRL B-313 after 24 hrs by agar diffusion method; type: functional, organism-based
[14] = tested on: Escherichia coli; assay: Bacteriostatic activity against Escherichia coli NRRL B-210 after 24 hrs by two-fold serial dilution technique; type: functional; settings: NRRL B-210, 24 h

Row | SMILES | Activity [1] | Activity [2] | Activity [3] | Activity [4] | MIC [5] | MIC [6] | MIC [7] | MIC [8] | Activity [9] | Activity [10] | Activity [11] | Activity [12] | Activity [13] | MIC [14]
1 | Cc1ccc(-c2c3c(nc4nc(C)[nH]c(=O)c24)N(c2ccc(F)cc2)C2(CCCCC2)S3)cc1 | 84% | 78.85% | 92.5% | 65% | – | – | – | – | – | – | – | – | – | –
2 | Cc1ccc(-c2c3c(oc(=O)c2C#N)N(c2ccc(F)cc2)C2(CCCCC2)S3)cc1 | – | – | – | – | 0.3 µg/mL (≈ 0.694 µM) | 0.2 µg/mL (≈ 0.462 µM) | 0.12 µg/mL (≈ 0.277 µM) | 0.125 µg/mL (≈ 0.289 µM) | Active | Active | inactive | Active | Active | –
3 | O=C1/C(=C\c2ccc(Cl)cc2)SC2(CCCCC2)N1c1ccc(F)cc1 | – | – | – | – | – | – | – | – | inactive | Active | Active | inactive | inactive | –
4 | Cc1ccc(/C=C2/SC3(CCCCC3)N(c3ccc(F)cc3)C2=O)cc1 | 61.2% | 50.32% | 66.8% | 41.1% | – | – | – | – | – | – | – | – | – | –
5 | Cc1ccc(-c2c3c(nc4[nH]c(=S)nc(NN)c24)N(c2ccc(F)cc2)C2(CCCCC2)S3)cc1 | 45.62% | 15.65% | 78.2% | 50.2% | – | – | – | – | – | – | – | – | – | –
6 | O=C1/C(=C\c2ccc(Cl)cc2)SC2(CCCCC2)N1c1ccc(Br)cc1 | – | – | – | – | – | – | – | – | inactive | Active | inactive | Active | inactive | –
7 | O=C1CSC2(CCCCC2)N1c1ccc(F)cc1 | – | – | – | – | 0.125 µg/mL (≈ 0.471 µM) | 0.125 µg/mL (≈ 0.471 µM) | 0.125 µg/mL (≈ 0.471 µM) | 0.15 µg/mL (≈ 0.565 µM) | Active | Active | Active | Active | Active | 0.125 µg/mL (≈ 0.471 µM)
8 | O=C1CSC2(CCCCC2)N1c1ccc(Br)cc1 | – | – | – | – | – | 0.2 µg/mL (≈ 0.613 µM) | 0.2 µg/mL (≈ 0.613 µM) | 0.3 µg/mL (≈ 0.92 µM) | Active | Active | Active | Active | Active | 0.2 µg/mL (≈ 0.613 µM)
9 | CC(=O)Nc1nc2c(c(-c3ccc(C)cc3)c1C#N)SC1(CCCCC1)N2c1ccc(F)cc1 | 65% | 50.63% | 79.8% | 49.9% | – | – | – | – | – | – | – | – | – | –
10 | Cc1ccc(-c2c3c(nc4[nH]c(=S)[nH]c(=S)c24)N(c2ccc(F)cc2)C2(CCCCC2)S3)cc1 | 64.2% | 50.21% | 84.6% | 60% | – | – | – | – | – | – | – | – | – | –
11 | O=C1/C(=N\Nc2ccc([N+](=O)[O-])cc2)SC2(CCCCC2)N1c1ccc(F)cc1 | – | – | – | – | 0.3 µg/mL (≈ 0.724 µM) | 0.45 µg/mL (≈ 1.09 µM) | 0.175 µg/mL (≈ 0.422 µM) | 0.175 µg/mL (≈ 0.422 µM) | inactive | Active | inactive | Active | Active | –
12 | N/N=C1\CSC2(CCCCC2)N1c1ccc(F)cc1 | – | – | – | – | 0.45 µg/mL (≈ 1.61 µM) | 0.435 µg/mL (≈ 1.56 µM) | 0.4 µg/mL (≈ 1.43 µM) | 0.4 µg/mL (≈ 1.43 µM) | Active | Active | inactive | Active | Active | –
13 | NS(=O)(=O)c1ccc(/N=C2\CSC3(CCCCC3)N2c2ccc(F)cc2)cc1 | – | – | – | – | – | – | – | – | inactive | Active | inactive | Active | Active | –
14 | Cc1ccc(C2NOC3=C2SC2(CCCCC2)N3c2ccc(F)cc2)cc1 (centres undefined) | 56.62% | 45.6% | 60.5% | 41% | – | – | – | – | inactive | Active | inactive | inactive | inactive | –
15 | Fc1ccc(N2/C(=N/Nc3ccccc3)CSC23CCCCC3)cc1 | – | – | – | – | – | – | – | – | inactive | Active | inactive | inactive | Active | –
16 | Cc1ccc(-c2c(C#N)c(N)nc3c2SC2(CCCCC2)N3c2ccc(F)cc2)cc1 | 55.84% | 45% | 85% | 54.6% | – | – | – | – | inactive | Active | inactive | inactive | Active | –
